Measured values: DBAASP
Converted amounts (≈) assume the structure as drawn.

Legend:
Assay in all cases: ≥ marks a high value that may be exact or a test limit, other limits are often not marked, values filed in µg/mL are converted to µM
[1] = test system: Escherichia coli ATCC 2592
[2] = test system: Pseudomonas aeruginosa ATCC 9027
[3] = test system: Staphylococcus aureus ATCC 6538
[4] = test system: Micrococcus luteus ATCC 9341
[5] = test system: Candida albicans ATCC 36232
[6] = test system: Staphylococcus aureus NCTC 12493
[7] = test system: Enterococcus faecalis NCTC 12697
[8] = test system: Pseudomonas aeruginosa ATCC 27853
[9] = test system: Candida albicans NCYC 1467
[10] = test system: Staphylococcus aureus NCTC 10788
[11] = test system: Escherichia coli NCTC 10418
[12] = test system: Staphylococcus aureus ATCC 12493
[13] = test system: Candida albicans NCPF 1467
[14] = test system: Bacillus subtilis ATCC 6633
[15] = test system: Staphylococcus epidermidis ATCC 12228
[16] = test system: Staphylococcus aureus

## CC(C)C[C@H](NC(=O)[C@H](CS)NC(=O)[C@H](CCCCN)NC(=O)[C@H](C)NC(=O)[C@H](C)NC(=O)[C@H](CS)NC(=O)[C@H](C)NC(=O)[C@H](C)NC(=O)[C@@H](N)CC(=O)O)C(=O)N[C@@H](Cc1c[nH]c2ccccc12)C(=O)N[C@@H](CCCN=C(N)N)C(N)=O [DAACAAKCLWR]
[1]
  MIC: ≥ 166 µM
[2]
  MIC: > 166 µM
[3]
  MIC: 166 µM (≈ 200 µg/mL)
[4]
  MIC: ≥ 166 µM
[5]
  MIC: ≥ 166 µM

## CC[C@H](C)[C@H](NC(=O)CNC(=O)[C@H](CCC(N)=O)NC(=O)[C@@H](NC(=O)[C@H](C)NC(=O)[C@H](Cc1cnc[nH]1)NC(=O)[C@@H]1CCCN1C(=O)[C@@H](NC(=O)[C@H](CC(C)C)NC(=O)[C@@H]1CCCN1C(=O)[C@@H](NC(=O)[C@H](CC(C)C)NC(=O)[C@H](Cc1cnc[nH]1)NC(=O)[C@H](CCC(N)=O)NC(=O)[C@@H](NC(=O)[C@@H](N)Cc1ccccc1)[C@@H](C)CC)[C@@H](C)CC)[C@@H](C)CC)[C@@H](C)CC)C(=O)N[C@@H](CCCCN)C(=O)N[C@@H](CC(=O)O)C(=O)N[C@H](C(=O)N[C@@H](Cc1ccccc1)C(N)=O)[C@@H](C)CC [FIQHLIPLIPHAIQGIKDIF]
[6]
  MIC: ≥ 45.3 µM
[7]
  MIC: ≥ 128 µM
[8]
  MIC: > 512 µM
[9]
  MIC: ≥ 90.5 µM
[10]
  MIC: 22.6 µM (≈ 52.3 µg/mL)
[11]
  MIC: ≥ 512 µM

## CC[C@H](C)[C@H](NC(=O)CNC(=O)[C@@H]1CCCN1C(=O)[C@H](CC(C)C)NC(=O)[C@@H](N)Cc1ccccc1)C(=O)N[C@@H](CC(C)C)C(=O)N[C@@H](CCCCN)C(=O)N[C@H](C(=O)N[C@@H](C)C(=O)N[C@@H](C)C(=O)N[C@@H](CCCCN)C(N)=O)C(C)C [FLPGILKVAAK]
[12]
  MIC: ≥ 512 µM
[7]
  MIC: ≥ 512 µM
[8]
  MIC: > 512 µM
[13]
  MIC: ≥ 512 µM
[10]
  MIC: ≥ 256 µM
[11]
  MIC: ≥ 512 µM

## CC[C@H](C)[C@@H]1NC(=O)[C@H](CO)NC(=O)[C@H](CCCCN)NC(=O)[C@H]([C@@H](C)O)NC(=O)[C@H](Cc2c[nH]c3ccccc23)NC(=O)[C@@H](NC(=O)[C@H](CCCN=C(N)N)NC(=O)[C@H](CCCN=C(N)N)NC(=O)[C@H](CCCN=C(N)N)NC(=O)[C@H](CCC(N)=O)NC(=O)[C@H](CCCN=C(N)N)NC(=O)[C@H](CCCN=C(N)N)NC(=O)[C@H](CCCCN)NC(=O)[C@H](CCCCN)NC(=O)[C@@H](N)CCCN=C(N)N)CSSC[C@@H](C(=O)O)NC(=O)[C@@H]2CCCN2C(=O)[C@H](CCCCN)NC(=O)[C@@H]2CCCN2C(=O)[C@@H]2CCCN2C1=O [RKKRRQRRRCWTKSIPPKPC]
[12]
  MIC: ≥ 256 µM
[8]
  MIC: 256 µM (≈ 660 µg/mL)
[9]
  MIC: 4 µM (≈ 10.3 µg/mL)
[10]
  MIC: ≥ 128 µM
[11]
  MIC: ≥ 128 µM

## CC(C)[C@H](NC(=O)[C@H](CS)NC(=O)[C@@H](NC(=O)[C@H](CCCN=C(N)N)NC(=O)[C@H](CCCCN)NC(=O)CNC(=O)[C@H](CC(N)=O)NC(=O)[C@H](CS)NC(=O)[C@H](Cc1ccc(O)cc1)NC(=O)CNC(=O)CNC(=O)[C@H](CO)NC(=O)[C@@H](N)CCCN=C(N)N)C(C)C)C(=O)N[C@@H](CS)C(=O)N[C@@H](CCCN=C(N)N)C(=O)O [RSGGYCNGKRVCVCR]
[1]
  MIC: 30.2 µM (≈ 50 µg/mL)
[14]
  MIC: 7.54 µM (≈ 12.5 µg/mL)
[15]
  MIC: 7.54 µM (≈ 12.5 µg/mL)
[2]
  MIC: 30.2 µM (≈ 50 µg/mL)
[3]
  MIC: 15.1 µM (≈ 25 µg/mL)
[4]
  MIC: 15.1 µM (≈ 25 µg/mL)
[5]
  MIC: 15.1 µM (≈ 25 µg/mL)
[16]
  MIC: > 60.3 µM

## CC(C)C[C@H](NC(=O)[C@H](C)NC(=O)[C@H](C)NC(=O)[C@H](CC(C)C)NC(=O)[C@H](CC(N)=O)NC(=O)[C@@H](NC(=O)[C@@H](NC(=O)[C@H](CC(C)C)NC(=O)[C@H](CCCCN)NC(=O)[C@H](CCCCN)NC(=O)[C@@H](NC(=O)[C@@H](NC(=O)[C@@H](NC(=O)[C@H](CC(C)C)NC(=O)[C@H](Cc1ccccc1)NC(=O)[C@@H](N)CO)[C@@H](C)O)[C@@H](C)O)C(C)C)C(C)C)[C@@H](C)O)C(N)=O [SFLTTVKKLVTNLAAL]
[12]
  MIC: 16 µM (≈ 27.5 µg/mL)
[7]
  MIC: ≥ 32 µM
[8]
  MIC: 64 µM (≈ 110 µg/mL)
[13]
  MIC: 16 µM (≈ 27.5 µg/mL)
[10]
  MIC: 8 µM (≈ 13.7 µg/mL)
[11]
  MIC: 16 µM (≈ 27.5 µg/mL)
